According to patent publication US10611771B2, “Pyrazolo [3,4-d] pyrimidine derivative” (WEST CHINA HOSPITAL, SICHUAN UNIVERSITY, priority 2016, dated 2020):
Where “and” joins values, the source holds several entries; their conditions need not be identical. Equal entries are not always repeated.

Assays:
H1299 cells = assay: MTT detection method, inhibitory effect against H1299 cells; format: cell-based
Description: (§1) MTT detection method was used, and MTT is a yellow compound and a dye accepting hydrogen ions, and can be used as the respiratory chain in mitochondria of viable cells. Under the action of succinate dehydrogenase and cytochrome C, the tetrazolium ring broke to form blue formanzan crystal, and the formation amount of formanzan crystal was only directly proportional to the viable counts. The formanzan crystal formed by reduction can dissolve in dimethyl sulfoxide (DMSO), and the optical density (OD) value can be determined at 490 nm using ELISA, to reflect the viable counts.
(§2) • Lung cancer cell lines: A549 and H1299. • Experimental materials: lung cancer cell lines, instruments and tools for cell culture, MTT, the compound mother liquid (10 mmol/L), and the positive control drug Src inhibitor pp1. 1. Specific Method • (3-1) Cell lines A549 and H1299 were recovered, and when the cells were in good conditions, namely cells grew to about 80% after one passage (i.e. the logarithmic growth phase), the cells were planked (96-well plate). • (3-2) Firstly, cells were collected, and the concentration of cell suspension was adjusted with counting chamber. Cells were seeded in 96-well plate at 1000˜10000 cells/well, and the detailed cell numbers in each well were dependent on the growth rate of different cells and the action time of drugs. A549 cells were seeded at 5000 cells, while H1299 cells were also seeded at 5000 cells, 200 μl for each well (100 μl cell suspension+100 μl drug dilution at different concentration gradient). The edge wells (36) were added 200 μl culture media (for prevention of edge effect). • (3-3) After planking and adding drugs, the plate was treated at 24 h, 48 h, and 72 h, and then for coloration, each well was added 200 μl culture media containing 20 μl MTT solution (5 mg/mL). The plate was continually cultured for 1˜4 hours, the incubation was stopped, and the culture supernatant fluid in each well was carefully absorbed. For suspension cells, the culture supernatant fluid in each well need be centrifuged before drawing. 150 μl DMSO was added to each well, and the plate was shaken on a shaking table for 15˜20 min, to allow the crystals to be completely dissolved. • (3-4) Colorimetry: The colorimetry was performed by ELISA, and the optical absorption value of each well was tested at a wavelength of 490 nm or 570 nm, and the result was recorded. • (3-5) Calculation Inhibition ratio=(the control−the drug)/the control×100% • IC50 (50% inhibitory concentration) can be calculated by spass software based on the inhibitory ratio at different concentration. II. Experimental Results • A549 cells were treated at 4 h, 24 h, 48 h, 72 h, and the drug dose was divided into the light concentration group (10 μm, 25 μm, 40 μm) and the high concentration group (50 μm, 80 μm, 100 μm), that were seeded at 6000 cells/well and 5000 cells/well, respectively, to carry out the experiment.
H1299 cells were seeded at 5000 cells/well, and after treatment for 4 h, 24 h, 48 h, and 72 h, the results were shown in Tables 5-9 and FIGS. 5-8: […]

A549 cells = assay: MTT detection method, inhibitory effect against A549 cells; format: cell-based
Description: as §1, §2

CCCCn1nc(-c2ccc(OCCOCCOCCOCCOS(=O)(=O)c3ccc(C)cc3)cc2)c2c(N)ncnc21 [Compound 2, 2-(2-(2-(2-(4-(4-amino-1-n-butyl-1H-pyrazolo[3,4-d]pyrimidin-3-)phenoxy)ethoxy)ethoxy)ethoxy)ethyl 4-methylbenzenesulfonic Acid]
The inhibitory ratio (%) for three parallel assays (H1299 cells; 4 h, 10 μm): 9% and 12% and 2% | The mean inhibitory ratio (%) (H1299 cells; 4 h, 10 μm): 7% | The inhibitory ratio (%) for three parallel assays (H1299 cells; 4 h, 25 μm): 12% and 15% | The mean inhibitory ratio (%) (H1299 cells; 4 h, 25 μm): 13% | The inhibitory ratio (%) for three parallel assays (H1299 cells; 4 h, 40 μm): 16% and 17% | The mean inhibitory ratio (%) (H1299 cells; 4 h, 40 μm): 16% | The inhibitory ratio (%) for three parallel assays (H1299 cells; 4 h, 50 μm): 14% and 13% | The mean inhibitory ratio (%) (H1299 cells; 4 h, 50 μm): 14% | The inhibitory ratio (%) for three parallel assays (H1299 cells; 4 h, 80 μm): 11% and 10% | The mean inhibitory ratio (%) (H1299 cells; 4 h, 80 μm): 11% | The inhibitory ratio (%) for three parallel assays (H1299 cells; 4 h, 100 μm): 13% and 17% and 12% | The mean inhibitory ratio (%) (H1299 cells; 4 h, 100 μm): 14% | The inhibitory ratio (%) for three parallel assays (H1299 cells; 24 h, 10 μm): 10% and 9% and 13% | The mean inhibitory ratio (%) (H1299 cells; 24 h, 10 μm): 11% | The inhibitory ratio (%) for three parallel assays (H1299 cells; 24 h, 25 μm): 26% and 23% and 25% | The mean inhibitory ratio (%) (H1299 cells; 24 h, 25 μm): 25% | The inhibitory ratio (%) for three parallel assays (H1299 cells; 24 h, 40 μm): 36% and 35% and 37% | The mean inhibitory ratio (%) (H1299 cells; 24 h, 40 μm): 36% | The inhibitory ratio (%) for three parallel assays (H1299 cells; 24 h, 50 μm): 44% and 45% and 41% | The mean inhibitory ratio (%) (H1299 cells; 24 h, 50 μm): 43% | The inhibitory ratio (%) for three parallel assays (H1299 cells; 24 h, 80 μm): 42% and 41% | The mean inhibitory ratio (%) (H1299 cells; 24 h, 80 μm): 42% | The inhibitory ratio (%) for three parallel assays (H1299 cells; 24 h, 100 μm): 40% | The mean inhibitory ratio (%) (H1299 cells; 24 h, 100 μm): 40% | The inhibitory ratio (%) for three parallel assays (H1299 cells; 48 h, 10 μm): 16% and 20% and 21% | The mean inhibitory ratio (%) (H1299 cells; 48 h, 10 μm): 19% | The inhibitory ratio (%) for three parallel assays (H1299 cells; 48 h, 25 μm): 37% and 36% | The mean inhibitory ratio (%) (H1299 cells; 48 h, 25 μm): 37% | The inhibitory ratio (%) for three parallel assays (H1299 cells; 48 h, 40 μm): 57% | The mean inhibitory ratio (%) (H1299 cells; 48 h, 40 μm): 57% | The inhibitory ratio (%) for three parallel assays (H1299 cells; 48 h, 50 μm): 61% | The mean inhibitory ratio (%) (H1299 cells; 48 h, 50 μm): 61% | The inhibitory ratio (%) for three parallel assays (H1299 cells; 48 h, 80 μm): 64% and 63% and 62% | The mean inhibitory ratio (%) (H1299 cells; 48 h, 80 μm): 63% | The inhibitory ratio (%) for three parallel assays (H1299 cells; 48 h, 100 μm): 65% and 64% and 63% | The mean inhibitory ratio (%) (H1299 cells; 48 h, 100 μm): 64% | The inhibitory ratio (%) for three parallel assays (H1299 cells; 72 h, 10 μm): 28% and 24% and 27% | The mean inhibitory ratio (%) (H1299 cells; 72 h, 10 μm): 26% | The inhibitory ratio (%) for three parallel assays (H1299 cells; 72 h, 25 μm): 44% and 43% and 42% | The mean inhibitory ratio (%) (H1299 cells; 72 h, 25 μm): 43% | The inhibitory ratio (%) for three parallel assays (H1299 cells; 72 h, 40 μm): 65% and 64% | The mean inhibitory ratio (%) (H1299 cells; 72 h, 40 μm): 65% | The inhibitory ratio (%) for three parallel assays (H1299 cells; 72 h, 50 μm): 73% and 74% | The mean inhibitory ratio (%) (H1299 cells; 72 h, 50 μm): 74% | The inhibitory ratio (%) for three parallel assays (H1299 cells; 72 h, 80 μm): 80% and 78% | The mean inhibitory ratio (%) (H1299 cells; 72 h, 80 μm): 80% | The inhibitory ratio (%) for three parallel assays (H1299 cells; 72 h, 100 μm): 84% and 83% and 81% | The mean inhibitory ratio (%) (H1299 cells; 72 h, 100 μm): 83% | The inhibitory ratio (%) for three parallel assays (A549 cells; 4 h, 10 μm): 25.00% and 30.31% and 29.06% | The mean inhibitory ratio (%) (A549 cells; 4 h, 10 μm): 28.13% | The inhibitory ratio (%) for three parallel assays (A549 cells; 4 h, 25 μm): 14.38% and 17.19% and 13.44% | The mean inhibitory ratio (%) (A549 cells; 4 h, 25 μm): 15.00% | The mean inhibitory ratio (%) (A549 cells; 4 h, 40 μm): 14.17% | The inhibitory ratio (%) for three parallel assays (A549 cells; 4 h, 50 μm): 34.57% | The mean inhibitory ratio (%) (A549 cells; 4 h, 50 μm): 34.57% | The inhibitory ratio (%) for three parallel assays (A549 cells; 4 h, 80 μm): 34.86% and 36.86% and 35.14% | The mean inhibitory ratio (%) (A549 cells; 4 h, 80 μm): 35.62% | The inhibitory ratio (%) for three parallel assays (A549 cells; 4 h, 100 μm): 39.43% and 38.29% and 35.71% | The mean inhibitory ratio (%) (A549 cells; 4 h, 100 μm): 37.81% | The inhibitory ratio (%) for three parallel assays (A549 cells; 24 h, 10 μm): 16.09% and 20.22% and 12.83% | The mean inhibitory ratio (%) (A549 cells; 24 h, 10 μm): 16.38% | The inhibitory ratio (%) for three parallel assays (A549 cells; 24 h, 25 μm): 20.43% and 18.48% and 18.70% | The mean inhibitory ratio (%) (A549 cells; 24 h, 25 μm): 19.20% | The inhibitory ratio (%) for three parallel assays (A549 cells; 24 h, 40 μm): 18.48% and 24.35% and 23.91% | The mean inhibitory ratio (%) (A549 cells; 24 h, 40 μm): 22.25% | The inhibitory ratio (%) for three parallel assays (A549 cells; 24 h, 50 μm): 71.46% and 71.25% and 71.04% | The mean inhibitory ratio (%) (A549 cells; 24 h, 50 μm): 71.25% | The inhibitory ratio (%) for three parallel assays (A549 cells; 24 h, 80 μm): 75.63% and 75.83% and 74.79% | The mean inhibitory ratio (%) (A549 cells; 24 h, 80 μm): 75.42% | The inhibitory ratio (%) for three parallel assays (A549 cells; 24 h, 100 μm): 73.75% and 75.83% and 74.58% | The mean inhibitory ratio (%) (A549 cells; 24 h, 100 μm): 74.72% | The inhibitory ratio (%) for three parallel assays (A549 cells; 48 h, 10 μm): 24.84% and 31.41% and 29.22% | The mean inhibitory ratio (%) (A549 cells; 48 h, 10 μm): 28.49% | The inhibitory ratio (%) for three parallel assays (A549 cells; 48 h, 25 μm): 32.66% and 36.72% and 31.56% | The mean inhibitory ratio (%) (A549 cells; 48 h, 25 μm): 33.65% | The inhibitory ratio (%) for three parallel assays (A549 cells; 48 h, 40 μm): 47.97% and 47.66% and 49.06% | The mean inhibitory ratio (%) (A549 cells; 48 h, 40 μm): 48.23% | The inhibitory ratio (%) for three parallel assays (A549 cells; 48 h, 50 μm): 82.83% and 81.50% and 80.33% | The mean inhibitory ratio (%) (A549 cells; 48 h, 50 μm): 81.56% | The inhibitory ratio (%) for three parallel assays (A549 cells; 48 h, 80 μm): 82.67% and 83.00% and 82.83% | The mean inhibitory ratio (%) (A549 cells; 48 h, 80 μm): 82.83% | The inhibitory ratio (%) for three parallel assays (A549 cells; 48 h, 100 μm): 83.17% and 83.00% and 82.83% | The mean inhibitory ratio (%) (A549 cells; 48 h, 100 μm): 83.00% | The inhibitory ratio (%) for three parallel assays (A549 cells; 72 h, 10 μm): 30.00% and 29.46% | The mean inhibitory ratio (%) (A549 cells; 72 h, 10 μm): 29.64% | The inhibitory ratio (%) for three parallel assays (A549 cells; 72 h, 25 μm): 48.74% and 47.21% and 50.00% | The mean inhibitory ratio (%) (A549 cells; 72 h, 25 μm): 48.65% | The inhibitory ratio (%) for three parallel assays (A549 cells; 72 h, 40 μm): 68.92% and 70.36% and 70.63% | The mean inhibitory ratio (%) (A549 cells; 72 h, 40 μm): 69.97% | The inhibitory ratio (%) for three parallel assays (A549 cells; 72 h, 50 μm): 88.11% and 87.97% and 88.38% | The mean inhibitory ratio (%) (A549 cells; 72 h, 50 μm): 88.15% | The inhibitory ratio (%) for three parallel assays (A549 cells; 72 h, 80 μm): 88.51% and 88.38% | The mean inhibitory ratio (%) (A549 cells; 72 h, 80 μm): 88.47% | The inhibitory ratio (%) for three parallel assays (A549 cells; 72 h, 100 μm): 88.38% and 88.65% and 88.51% | The mean inhibitory ratio (%) (A549 cells; 72 h, 100 μm): 88.51%
